Experimental data: publication PMC8125603, “Species-Specific Regulation of TRPM2 by PI(4,5)P2 via the Membrane Interfacial Cavity” (International Journal of Molecular Sciences, 2021)

Assays:
[1] = target: T1, hsTRPM2 (Homo sapiens, UniProt O94759); experiment: inside-out patch clamp, HEK-293 cells, -60 mV, dose-response of current activation; type: biochemical
T1 construct: gene TRPM2; full-length wild-type cDNA in modified pIRES-hrGFP-2a, transient in HEK-293 cells; homotetramer; inside-out patches (C-terminal 3xHA tag only for surface expression tests)
T1 sequence (O94759 whole entry): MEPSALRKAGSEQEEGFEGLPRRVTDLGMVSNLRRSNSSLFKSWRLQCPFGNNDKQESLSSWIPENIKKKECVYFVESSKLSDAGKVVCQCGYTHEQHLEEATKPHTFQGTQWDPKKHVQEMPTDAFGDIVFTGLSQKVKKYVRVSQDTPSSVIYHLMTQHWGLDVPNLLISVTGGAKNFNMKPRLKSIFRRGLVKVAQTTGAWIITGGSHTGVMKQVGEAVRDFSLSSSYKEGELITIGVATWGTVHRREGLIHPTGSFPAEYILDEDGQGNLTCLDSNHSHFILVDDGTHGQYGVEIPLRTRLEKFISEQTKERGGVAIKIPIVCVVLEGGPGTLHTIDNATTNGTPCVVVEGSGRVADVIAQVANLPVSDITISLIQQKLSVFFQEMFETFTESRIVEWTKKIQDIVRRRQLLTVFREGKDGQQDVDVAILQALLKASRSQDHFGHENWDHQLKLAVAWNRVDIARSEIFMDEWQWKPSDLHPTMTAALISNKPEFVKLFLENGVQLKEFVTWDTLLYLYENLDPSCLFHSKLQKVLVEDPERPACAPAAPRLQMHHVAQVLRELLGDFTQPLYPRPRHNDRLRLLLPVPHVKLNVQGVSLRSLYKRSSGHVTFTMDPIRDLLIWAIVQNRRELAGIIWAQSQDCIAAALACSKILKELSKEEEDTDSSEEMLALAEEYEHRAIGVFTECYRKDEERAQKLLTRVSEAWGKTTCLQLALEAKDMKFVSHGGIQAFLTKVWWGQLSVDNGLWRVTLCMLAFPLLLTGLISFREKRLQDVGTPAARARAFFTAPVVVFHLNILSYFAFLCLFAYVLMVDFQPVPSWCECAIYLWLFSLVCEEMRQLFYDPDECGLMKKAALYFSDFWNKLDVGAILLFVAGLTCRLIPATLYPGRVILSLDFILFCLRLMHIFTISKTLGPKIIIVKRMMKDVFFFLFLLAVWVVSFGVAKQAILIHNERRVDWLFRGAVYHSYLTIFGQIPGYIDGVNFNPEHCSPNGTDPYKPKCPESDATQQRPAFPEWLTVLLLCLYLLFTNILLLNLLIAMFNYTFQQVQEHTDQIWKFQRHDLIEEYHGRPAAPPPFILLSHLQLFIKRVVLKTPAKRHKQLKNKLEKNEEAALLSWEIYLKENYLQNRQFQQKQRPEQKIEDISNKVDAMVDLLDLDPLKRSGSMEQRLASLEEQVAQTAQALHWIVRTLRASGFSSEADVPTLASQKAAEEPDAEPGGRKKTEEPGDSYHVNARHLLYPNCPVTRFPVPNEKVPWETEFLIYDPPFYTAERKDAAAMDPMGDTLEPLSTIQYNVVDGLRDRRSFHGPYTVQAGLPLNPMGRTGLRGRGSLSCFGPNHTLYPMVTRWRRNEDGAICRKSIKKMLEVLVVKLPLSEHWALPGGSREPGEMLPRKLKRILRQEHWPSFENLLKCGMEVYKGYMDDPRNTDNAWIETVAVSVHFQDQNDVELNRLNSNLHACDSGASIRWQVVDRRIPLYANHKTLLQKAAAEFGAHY

[2] = target: T2, nvTRPM2 (Nematostella vectensis, UniProt A7T1N0); experiment: as above; type: biochemical
T2 construct: gene TRPM2; full-length wild-type cDNA in modified pIRES-hrGFP-2a, transient in HEK-293 cells; homotetramer; inside-out patches (C-terminal 3xHA tag only for surface expression tests)
T2 sequence (A7T1N0 whole entry): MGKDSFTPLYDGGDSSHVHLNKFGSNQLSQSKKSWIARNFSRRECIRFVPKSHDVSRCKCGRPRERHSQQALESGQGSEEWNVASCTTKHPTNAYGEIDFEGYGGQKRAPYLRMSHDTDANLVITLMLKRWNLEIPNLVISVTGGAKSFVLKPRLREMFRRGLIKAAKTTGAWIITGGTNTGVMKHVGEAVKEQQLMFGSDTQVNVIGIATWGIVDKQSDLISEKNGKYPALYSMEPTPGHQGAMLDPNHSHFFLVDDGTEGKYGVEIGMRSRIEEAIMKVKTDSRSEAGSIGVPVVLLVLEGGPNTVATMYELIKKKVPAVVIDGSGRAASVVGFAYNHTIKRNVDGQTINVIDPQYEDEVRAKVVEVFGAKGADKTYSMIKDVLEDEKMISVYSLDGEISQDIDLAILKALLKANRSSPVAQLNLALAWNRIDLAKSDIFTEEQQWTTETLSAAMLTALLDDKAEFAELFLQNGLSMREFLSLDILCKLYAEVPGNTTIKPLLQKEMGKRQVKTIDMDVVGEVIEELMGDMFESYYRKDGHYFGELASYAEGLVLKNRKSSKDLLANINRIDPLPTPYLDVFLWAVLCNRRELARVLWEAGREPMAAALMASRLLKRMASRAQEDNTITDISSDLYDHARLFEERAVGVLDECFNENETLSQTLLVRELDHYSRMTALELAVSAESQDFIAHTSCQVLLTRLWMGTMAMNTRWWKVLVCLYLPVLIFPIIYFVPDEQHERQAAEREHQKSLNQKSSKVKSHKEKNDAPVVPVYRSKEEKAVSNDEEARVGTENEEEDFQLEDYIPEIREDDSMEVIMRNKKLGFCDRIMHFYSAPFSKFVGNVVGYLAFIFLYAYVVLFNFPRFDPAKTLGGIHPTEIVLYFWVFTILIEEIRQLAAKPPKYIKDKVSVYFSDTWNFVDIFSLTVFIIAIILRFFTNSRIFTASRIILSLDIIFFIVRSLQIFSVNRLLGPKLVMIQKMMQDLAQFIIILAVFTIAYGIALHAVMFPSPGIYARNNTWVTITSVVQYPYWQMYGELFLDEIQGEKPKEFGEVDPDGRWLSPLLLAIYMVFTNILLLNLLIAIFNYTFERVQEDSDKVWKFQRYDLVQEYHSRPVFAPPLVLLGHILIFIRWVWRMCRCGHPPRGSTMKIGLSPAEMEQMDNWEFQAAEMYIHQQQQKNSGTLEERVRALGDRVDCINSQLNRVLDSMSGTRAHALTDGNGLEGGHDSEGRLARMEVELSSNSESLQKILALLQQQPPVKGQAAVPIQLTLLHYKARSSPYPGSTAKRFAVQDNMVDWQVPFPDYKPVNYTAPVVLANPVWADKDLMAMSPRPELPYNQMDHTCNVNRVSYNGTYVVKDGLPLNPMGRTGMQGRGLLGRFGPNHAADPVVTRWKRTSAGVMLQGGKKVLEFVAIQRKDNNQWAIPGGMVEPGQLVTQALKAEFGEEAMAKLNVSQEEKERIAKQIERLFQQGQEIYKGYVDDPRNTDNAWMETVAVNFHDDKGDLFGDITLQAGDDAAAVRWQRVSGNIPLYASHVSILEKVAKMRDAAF

EC50 [1]: 11.9 ± 1.1 µM
EC50 [2]: 2.1 ± 0.2 µM
SMILES: CCCCCCCC(=O)OC[C@H](COP(=O)(O)O[C@@H]1[C@H](O)[C@H](O)[C@@H](OP(=O)(O)O)[C@H](OP(=O)(O)O)[C@H]1O)OC(=O)CCCCCCC [PIP2]
